Patent US10329249B1, “Sulindac derivatives” (KING SAUD UNIVERSITY, priority 2018, dated 2019)

What was measured:
[1] = DPPH free radical scavenging (antioxidant activity); settings: 100 μg/mL compound in 3 mL 0.004% DPPH, 520 nm after 30 min; mean of three replicates ±SD
Experimental: The antioxidant activity was measured based on the scavenging activity of the stable DPPH free radical. 100 μg/mL of the twenty-five sulindac derivative compounds were added to 3 mL 0.004% DPPH solution. Methanol was added to 3 mL 0.004% DPPH solution for the control sample. Absorbance was determined at 520 nm after 30 min. Butylated hydroxytoluene (BHT) was used as a reference drug. The percent inhibition was calculated by the equation:
[formula] where At is the absorbance of the compound and A0 is the absorbance of the control.

SMILES	Scavenging Effect [1]	melting point
Cc1cc(C(C)(C)C)c(O)c(C(C)(C)C)c1 [BHT, Butylated hydroxytoluene, reference compound]	90.6 ± 3.83%	
CC1=C(CC(=O)N/N=C\c2ccccc2[N+](=O)[O-])c2cc(F)ccc2/C1=C\c1ccc([S+](C)[O-])cc1 (stereo not drawn) [Compound 1, N′-(2-nitrobenzylidene)-2-((1Z)-1-(4-(methylsulfinyl)benzylidene)-5-fluoro-2-methyl-1H-inden-3-yl)acetohydrazide]	18.53 ± 4.86%	148 to 150 °C
CC1=C(CC(=O)N/N=C\c2ccc([N+](=O)[O-])cc2)c2cc(F)ccc2/C1=C\c1ccc([S+](C)[O-])cc1 (stereo not drawn) [Compound 2, N′-(4-nitrobenzylidene)-2-((1Z)-1-(4-(methylsulfinyl)benzylidene)-5-fluoro-2-methyl-1H-inden-3-yl)acetohydrazide]	19.26 ± 5.32%	220 to 222 °C
CC1=C(CC(=O)N/N=C\c2ccccc2)c2cc(F)ccc2/C1=C\c1ccc([S+](C)[O-])cc1 (stereo not drawn) [Compound 3]	67.40 ± 9.25%	138 to 140 °C
CC1=C(CC(=O)N/N=C\c2ccc(Cl)cc2)c2cc(F)ccc2/C1=C\c1ccc([S+](C)[O-])cc1 (stereo not drawn) [Compound 4, N′-(4-chlorobenzylidene)-2-((1Z)-1-(4-(methylsulfinyl)benzylidene)-5-fluoro-2-methyl-1H-inden-3-yl)acetohydrazide]	39.86 ± 10.80%	228 to 230 °C
CC1=C(CC(=O)N/N=C\c2cccc(O)c2)c2cc(F)ccc2/C1=C\c1ccc([S+](C)[O-])cc1 (stereo not drawn) [Compound 5]	42.20 ± 13.20%	
COc1cccc(/C=N\NC(=O)CC2=C(C)/C(=C/c3ccc([S+](C)[O-])cc3)c3ccc(F)cc32)c1 (stereo not drawn) [Compound 6]	71.03 ± 5.31%	
CC1=C(CC(=O)N/N=C\c2cccc([N+](=O)[O-])c2)c2cc(F)ccc2/C1=C\c1ccc([S+](C)[O-])cc1 (stereo not drawn) [Compound 7]	49.36 ± 5.57%	165 to 167 °C
COc1cc(OC)c(OC)cc1/C=N\NC(=O)CC1=C(C)/C(=C/c2ccc([S+](C)[O-])cc2)c2ccc(F)cc21 (stereo not drawn) [Compound 9]	78.97 ± 9.36%	233 to 235 °C
COc1cc(/C=N\NC(=O)CC2=C(C)/C(=C/c3ccc([S+](C)[O-])cc3)c3ccc(F)cc32)cc(OC)c1OC (stereo not drawn) [Compound 10, N′-(3,4,5-trimethoxybenzylidene)-2-((1Z)-1-(4-(methylsulfinyl)benzylidene)-5-fluoro-2-methyl-1H-inden-3-yl)acetohydrazide]	42.33 ± 18.38%	165 to 167 °C
CC1=C(CC(=O)N/N=C\c2ccc(O)cc2)c2cc(F)ccc2/C1=C\c1ccc([S+](C)[O-])cc1 (stereo not drawn) [Compound 11, N′-(4-hydroxybenzylidene)-2-((1Z)-1-(4-(methylsulfinyl)benzylidene)-5-fluoro-2-methyl-1H-inden-3-yl)acetohydrazide]	45.06 ± 22.57%	
COc1ccccc1/C=N\NC(=O)CC1=C(C)/C(=C/c2ccc([S+](C)[O-])cc2)c2ccc(F)cc21 (stereo not drawn) [Compound 12, N′-(2-methoxybenzylidene)-2-((1Z)-1-(4-(methylsulfinyl)benzylidene)-5-fluoro-2-methyl-1H-inden-3-yl) acetohydrazide]	39.73 ± 15.65%	
COc1ccc(/C=N\NC(=O)CC2=C(C)/C(=C/c3ccc([S+](C)[O-])cc3)c3ccc(F)cc32)c(OC)c1 (stereo not drawn) [Compound 13, N′-(2,4-dimethoxybenzylidene)-2-((1Z)-1-(4-(methylsulfinyl)benzylidene)-5-fluoro-2-methyl-1H-inden-3-yl)acetohydrazide]	23.07 ± 6.95%	185 to 187 °C
COc1cccc(/C=N\NC(=O)CC2=C(C)/C(=C/c3ccc([S+](C)[O-])cc3)c3ccc(F)cc32)c1OC (stereo not drawn) [Compound 14, N′-(2,3-dimethoxybenzylidene)-2-((1Z)-1-(4-(methylsulfinyl)benzylidene)-5-fluoro-2-methyl-1H-inden-3-yl)acetohydrazide]	62.93 ± 6.72%	203 to 205 °C
COc1ccc(/C=N\NC(=O)CC2=C(C)/C(=C/c3ccc([S+](C)[O-])cc3)c3ccc(F)cc32)cc1OC (stereo not drawn) [Compound 15, N′-(3,4-dimethoxybenzylidene)-2-((1Z)-1-(4-(methylsulfinyl)benzylidene)-5-fluoro-2-methyl-1H-inden-3-yl)acetohydrazide]	40.60 ± 14.40%	230 to 232 °C
COc1cc(OC)c(/C=N\NC(=O)CC2=C(C)/C(=C/c3ccc([S+](C)[O-])cc3)c3ccc(F)cc32)c(OC)c1 (stereo not drawn) [Compound 16, N′-(2,4,6-timethoxybenzylidene)-2-((1Z)-1-(4-(methylsulfinyl)benzylidene)-5-fluoro-2-methyl-1H-inden-3-yl)acetohydrazide]	30.80 ± 2.50%	193 to 195 °C
COc1ccc(/C=N\NC(=O)CC2=C(C)/C(=C/c3ccc([S+](C)[O-])cc3)c3ccc(F)cc32)c(OC)c1OC (stereo not drawn) [Compound 17, N′-(2,3,4-timethoxybenzylidene)-2-((1Z)-1-(4-(methylsulfinyl)benzylidene)-5-fluoro-2-methyl-1H-inden-3-yl)acetohydrazide]	63.56 ± 0.47%	185 to 187 °C
CCOc1ccc(/C=N\NC(=O)CC2=C(C)/C(=C/c3ccc([S+](C)[O-])cc3)c3ccc(F)cc32)cc1OC (stereo not drawn) [Compound 18, N′-(3-methoxy-4-ethoxybenzylidene)-2-((1Z)-1-(4-(methylsulfinyl)benzylidene)-5-fluoro-2-methyl-1H-inden-3-yl)acetohydrazide]		158 to 160 °C
COc1cc(/C=N\NC(=O)CC2=C(C)/C(=C/c3ccc([S+](C)[O-])cc3)c3ccc(F)cc32)cc(OC)c1O (stereo not drawn) [Compound 19, N′-(3,5-dimethoxy-4-hydroxybenzylidene)-2-((1Z)-1-(4-(methylsulfinyl)benzylidene)-5-fluoro-2-methyl-1H-inden-3-yl)acetohydrazide]		218 to 220 °C
CCOc1cc(/C=N\NC(=O)CC2=C(C)/C(=C/c3ccc([S+](C)[O-])cc3)c3ccc(F)cc32)ccc1O (stereo not drawn) [Compound 20, N′-(3-ethoxy-4-hydroxybenzylidene)-2-((1Z)-1-(4-(methylsulfinyl)benzylidene)-5-fluoro-2-methyl-1H-inden-3-yl)acetohydrazide]	35.50 ± 9.05%	193 to 195 °C
CC1=C(CC(=O)N/N=C\c2cc(O)ccc2O)c2cc(F)ccc2/C1=C\c1ccc([S+](C)[O-])cc1 (stereo not drawn) [Compound 21, N′-(2,5-dihydroxybenzylidene)-2-((1Z)-1-(4-(methylsulfinyl)benzylidene)-5-fluoro-2-methyl-1H-inden-3-yl)acetohydrazide]	38.10 ± 10.92%	180 to 182 °C
COc1ccc(/C=N\NC(=O)CC2=C(C)/C(=C/c3ccc([S+](C)[O-])cc3)c3ccc(F)cc32)cc1O (stereo not drawn) [Compound 22, N′-(3-hydroxy-4-methoxybenzylidene)-2-((1Z)-1-(4-(methylsulfinyl)benzylidene)-5-fluoro-2-methyl-1H-inden-3-yl)acetohydrazide]	51.40 ± 16.66%	208 to 210 °C
CC1=C(CC(=O)N/N=C\c2cccc(O)c2O)c2cc(F)ccc2/C1=C\c1ccc([S+](C)[O-])cc1 (stereo not drawn) [Compound 23, N′-(2,3-dihydroxybenzylidene)-2-((1Z)-1-(4-(methylsulfinyl)benzylidene)-5-fluoro-2-methyl-1H-inden-3-yl)acetohydrazide]	33.10 ± 8.41%	
COc1cccc(/C=N\NC(=O)CC2=C(C)/C(=C/c3ccc([S+](C)[O-])cc3)c3ccc(F)cc32)c1O (stereo not drawn) [Compound 24]	27.66 ± 2.12%	210 to 212 °C
CC1=C(CC(=O)N/N=C\c2ccc(O)c(O)c2O)c2cc(F)ccc2/C1=C\c1ccc([S+](C)[O-])cc1 (stereo not drawn) [Compound 25, N′-(2,3,4-trihydroxybenzylidene)-2-((1Z)-1-(4-(methylsulfinyl)benzylidene)-5-fluoro-2-methyl-1H-inden-3-yl)acetohydrazide]	30.06 ± 3.30%	195 to 197 °C
